In patent US9573957B2 (Boehringer Ingelheim International GmbH, priority 2013, dated 2017):

Columns and labels:
[1] = target: human LTA4 hydrolase (Homo sapiens (Human), UniProt P09960); test: LTA4H Enzyme assay (peptidase, Arg-AMC cleavage); assay type: biochemical; conditions: LTA4H Enzyme 1 nM, Arg-AMC substrate 50 μM, room temperature 1 h, fluorescence
Protocol: The compounds of the invention are assessed for the ability to interact with human LTA4 hydrolase in an enzymatic assay that measures the ability of the enzyme to cleave the peptide bond of arginyl-aminomethylcoumarin (Arg-AMC). LTA4H Enzyme (1 nM final), Arg-AMC substrate (50 μM final), and compound are combined in a reaction buffer (50 mM Tris-HCl (pH 7.5), 100 mM KCl, 0.5% bovine serum albumin) at room temperature for 1 h. The formation of product is assessed by measuring the fluorescence of aminomethylcoumarin product (excitation wavelength 380 nm/emission wavelength 460 nm).

[2] = test system: synthesis of LTB4 in human whole blood; test: LTB4 production inhibition assay in human whole blood (HWB); assay type: cell-based; conditions: heparinized human whole blood, 15 min at 37° C., Calcimycin 20 μM 30 min, plasma LTB4 by HTRF
Protocol: The compounds of the invention are additionally tested in a human whole blood (HWB) assay to determine their ability to inhibit the synthesis of LTB4 in a cellular system. Compounds are combined with heparinized human whole blood and incubated for 15 minutes at 37° C. Calcimycin (20 μM final, prepared in phosphate-buffered saline, pH 7.4) is then added and the mixture is incubated for another 30 minutes at 37° C. The samples are centrifuged for 5 min at low speed (1500×g) and the plasma layer is removed. Plasma LTB4 concentrations are then measured using an antibody-based homogenous time-resolved fluorescence method (CisBio, Bedford, Mass.).

Chain of human LTA4 hydrolase (P09960 whole entry): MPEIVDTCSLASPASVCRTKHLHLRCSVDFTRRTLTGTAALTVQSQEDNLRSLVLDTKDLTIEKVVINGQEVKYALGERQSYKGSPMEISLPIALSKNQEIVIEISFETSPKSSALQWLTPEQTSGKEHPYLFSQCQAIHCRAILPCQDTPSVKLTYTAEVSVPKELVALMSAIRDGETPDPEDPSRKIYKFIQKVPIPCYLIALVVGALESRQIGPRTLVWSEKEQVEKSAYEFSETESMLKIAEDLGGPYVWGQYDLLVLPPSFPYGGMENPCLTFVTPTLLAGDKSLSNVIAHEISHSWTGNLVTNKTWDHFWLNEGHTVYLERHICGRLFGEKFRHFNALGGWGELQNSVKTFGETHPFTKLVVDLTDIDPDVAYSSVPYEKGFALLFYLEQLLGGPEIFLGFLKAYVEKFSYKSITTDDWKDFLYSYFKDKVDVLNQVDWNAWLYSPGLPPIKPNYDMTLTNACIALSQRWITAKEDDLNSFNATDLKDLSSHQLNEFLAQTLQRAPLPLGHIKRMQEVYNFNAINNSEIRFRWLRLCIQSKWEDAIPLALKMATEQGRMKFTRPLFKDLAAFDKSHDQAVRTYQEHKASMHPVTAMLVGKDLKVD

Compound	IC50 [1] [nM]	IC50 [2] [nM]
CC(C)(O)C(=O)N1CC2CCC(C1)N2Cc1ccc2cc(Oc3ccc(-c4ccn[nH]4)cn3)ccc2n1 [Example 58, 2-Hydroxy-2-methyl-1-(8-{6-[5-(2H-pyrazol-3-yl)-pyridin-2-yloxy]-quinolin-2-ylmethyl}-3,8-diaza-bicyclo[3.2.1]oct-3-yl)-propan-1-one]	0.45	120
C[C@@H](O)C(=O)N1CC2CCC(C1)N2Cc1ccc2cc(Oc3ccc(-c4ccn[nH]4)cn3)ccc2n1 [Example 59, (R)-2-Hydroxy-1-(8-{6-[5-(2H-pyrazol-3-yl)-pyridin-2-yloxy]-quinolin-2-ylmethyl}-3,8-diaza-bicyclo[3.2.1]oct-3-yl)-propan-1-one]	0.54	110
COCC(=O)N1CC2CCC(C1)N2Cc1ccc2cc(Oc3ccc(-c4ccn[nH]4)cn3)ccc2n1 [Example 60, 2-Methoxy-1-(8-{6-[5-(2H-pyrazol-3-yl)-pyridin-2-yloxy]-quinolin-2-ylmethyl}-3,8-diaza-bicyclo[3.2.1]oct-3-yl)-ethanone]	0.33	110
O=C(CO)N1CCN(CC2Cc3ccc(Oc4ccc(-c5ccn[nH]5)cn4)cc3O2)CC1 (stereo not drawn) [Example 65, 2-Hydroxy-1-(4-{6-[5-(2H-pyrazol-3-yl)-pyridin-2-yloxy]-2,3-dihydro-benzofuran-2-ylmethyl}-piperazin-1-yl)-ethanone]	4.6	560
CS(=O)(=O)N1CCN(Cc2ccc3cc(Oc4ccc(-c5ccn[nH]5)cn4)ccc3n2)CC1 [Example 66, 2-(4-Methanesulfonyl-piperazin-1-ylmethyl)-6-[5-(2H-pyrazol-3-yl)-pyridin-2-yloxy]-quinoline]	1.7	430
CCS(=O)(=O)N1CCN(Cc2ccc3cc(Oc4ccc(-c5ccn[nH]5)cn4)ccc3n2)CC1 [Example 67, 2-(4-Ethanesulfonyl-piperazin-1-ylmethyl)-6-[5-(2H-pyrazol-3-yl)-pyridin-2-yloxy]-quinoline]	2.9	550
O=C1[C@@H](O)CCN1C1CCN(CCC2COc3cc(Oc4ccc(-c5ccn[nH]5)cn4)ccc32)CC1 (stereo partly drawn) [Example 70, (S)-3-Hydroxy-1-[1-(2-{6-[5-(2H-pyrazol-3-yl)-pyridin-2-yloxy]-2,3-dihydro-benzofuran-3-yl}-ethyl)-piperidin-4-yl]-pyrrolidin-2-one]	1.7	290
CS(=O)(=O)N1CCN(CCC2COc3cc(Oc4ccc(-c5ccn[nH]5)cn4)ccc32)CC1 (stereo not drawn) [Example 71, 1-Methanesulfonyl-4-(2-{6-[5-(2H-pyrazol-3-yl)-pyridin-2-yloxy]-2,3-dihydro-benzofuran-3-yl}-ethyl)-piperazine]	1.7	490
CS(=O)(=O)N1CCN(CCc2coc3cc(Oc4ccc(-c5ccn[nH]5)cn4)ccc23)CC1 [Example 74, 1-Methanesulfonyl-4-(2-{6-[5-(2H-pyrazol-3-yl)-pyridin-2-yloxy]-benzofuran-3-yl}-ethyl)-piperazine]	1.4	350
CO[C@H](C)C(=O)N1CCN(CCC2COc3cc(Oc4ccc(-c5ccn[nH]5)cn4)ccc32)CC1 (stereo partly drawn) [Example 76, (R)-2-Methoxy-1-[4-(2-{6-[5-(2H-pyrazol-3-yl)-pyridin-2-yloxy]-2,3-dihydro-benzofuran-3-yl}-ethyl)-piperazin-1-yl]-propan-1-one]	1.7	360
CC(C)(O)C(=O)N1CCN(CCC2COc3cc(Oc4ccc(-c5ccn[nH]5)cn4)ccc32)CC1 (stereo not drawn) [Example 81, 2-Hydroxy-2-methyl-1-[4-(2-{6-[5-(2H-pyrazol-3-yl)-pyridin-2-yloxy]-2,3-dihydro-benzofuran-3-yl}-ethyl)-piperazin-1-yl]-propan-1-one]	2.2	580
CC(C)(O)C(=O)N1CCN(CCc2coc3cc(Oc4ccc(-c5ccn[nH]5)cn4)ccc23)CC1 [Example 85, 2-Hydroxy-2-methyl-1-[4-(2-{6-[5-(2H-pyrazol-3-yl)-pyridin-2-yloxy]-benzofuran-3-yl}-ethyl)-piperazin-1-yl]-propan-1-one]	1.3	310

Continued by falling IC50 [1], values first:

IC50 [1] [nM]	IC50 [2] [nM]	Compound
1.3	410	O=C(CO)N1CCN(CCc2coc3cc(Oc4ccc(-c5ccn[nH]5)cn4)ccc23)CC1 [Example 82, 2-Hydroxy-1-[4-(2-{6-[5-(2H-pyrazol-3-yl)-pyridin-2-yloxy]-benzofuran-3-yl}-ethyl)-piperazin-1-yl]-ethanone]
1.3	450	C[C@H](O)C(=O)N1CCN(CCC2COc3cc(Oc4ccc(-c5ccn[nH]5)cn4)ccc32)CC1 (stereo partly drawn) [Example 84, (S)-2-Hydroxy-1-[4-(2-{6-[5-(2H-pyrazol-3-yl)-pyridin-2-yloxy]-2,3-dihydro-benzofuran-3-yl}-ethyl)-piperazin-1-yl]-propan-1-one]
1.2	220	O=C1[C@@H](O)CCN1C1CCN(C[C@@H]2Cc3ccc(Oc4ccc(-c5ccn[nH]5)cn4)cc3O2)CC1 [Example 61, (S)-3-Hydroxy-1-(1-{(S)-6-[5-(2H-pyrazol-3-yl)-pyridin-2-yloxy]-2,3-dihydro-benzofuran-2-ylmethyl}-piperidin-4-yl)-pyrrolidin-2-one]
1.1	270	O=C1CCCN1C1CCN(CCC2COc3cc(Oc4ccc(-c5ccn[nH]5)cn4)ccc32)CC1 (stereo not drawn) [Example 68, 1-[1-(2-{6-[5-(2H-Pyrazol-3-yl)-pyridin-2-yloxy]-2,3-dihydro-benzofuran-3-yl}-ethyl)-piperidin-4-yl]-pyrrolidin-2-one]
0.95	150	O=C1CCCN1C1CCN(C[C@@H]2Cc3ccc(Oc4ccc(-c5ccn[nH]5)cn4)cc3O2)CC1 [Example 64, 1-(1-{(S)-6-[5-(2H-Pyrazol-3-yl)-pyridin-2-yloxy]-2,3-dihydro-benzofuran-2-ylmethyl}-piperidin-4-yl)-pyrrolidin-2-one]
0.92	190	CO[C@H](C)C(=O)N1CCN(CCc2coc3cc(Oc4ccc(-c5ccn[nH]5)cn4)ccc23)CC1 [Example 78, (R)-2-Methoxy-1-[4-(2-{6-[5-(2H-pyrazol-3-yl)-pyridin-2-yloxy]-benzofuran-3-yl}-ethyl)-piperazin-1-yl]-propan-1-one]
0.88	250	CO[C@@H](C)C(=O)N1CCN(CCc2coc3cc(Oc4ccc(-c5ccn[nH]5)cn4)ccc23)CC1 [Example 75, (S)-2-Methoxy-1-[4-(2-{6-[5-(2H-pyrazol-3-yl)-pyridin-2-yloxy]-benzofuran-3-yl}-ethyl)-piperazin-1-yl]-propan-1-one]
0.88	170	COCC(=O)N1CCN(CCc2coc3cc(Oc4ccc(-c5ccn[nH]5)cn4)ccc23)CC1 [Example 77, 2-Methoxy-1-[4-(2-{6-[5-(2H-pyrazol-3-yl)-pyridin-2-yloxy]-benzofuran-3-yl}-ethyl)-piperazin-1-yl]-ethanone]
0.86	240	C[C@H](O)C(=O)N1CCN(CCc2coc3cc(Oc4ccc(-c5ccn[nH]5)cn4)ccc23)CC1 [Example 83, (S)-2-Hydroxy-1-[4-(2-{6-[5-(2H-pyrazol-3-yl)-pyridin-2-yloxy]-benzofuran-3-yl}-ethyl)-piperazin-1-yl]-propan-1-one]
0.85	200	CO[C@H](C)C(=O)N1CCN(Cc2cn3cc(Oc4ccc(-c5ccn[nH]5)cc4)ccc3n2)CC1 [Example 80, (R)-2-Methoxy-1-(4-{6-[4-(2H-pyrazol-3-yl)-phenoxy]-imidazo[1,2-a]pyridin-2-ylmethyl}-piperazin-1-yl)-propan-1-one]
0.77	340	O=C1[C@@H](O)CCN1C1CCN(C[C@H]2Cc3ccc(Oc4ccc(-c5ccn[nH]5)cn4)cc3O2)CC1 [Example 62, (S)-3-Hydroxy-1-(1-{(R)-6-[5-(2H-pyrazol-3-yl)-pyridin-2-yloxy]-2,3-dihydro-benzofuran-2-ylmethyl}-piperidin-4-yl)-pyrrolidin-2-one]
0.75	210	O=C1OCCN1C1CCN(CCC2COc3cc(Oc4ccc(-c5ccn[nH]5)cn4)ccc32)CC1 (stereo not drawn) [Example 69, 3-[1-(2-{6-[5-(2H-Pyrazol-3-yl)-pyridin-2-yloxy]-2,3-dihydro-benzofuran-3-yl}-ethyl)-piperidin-4-yl]-oxazolidin-2-one]
0.73	220	O=C1[C@@H](O)CCN1C1CCN(CCc2coc3cc(Oc4ccc(-c5ccn[nH]5)cn4)ccc23)CC1 [Example 73, (S)-3-Hydroxy-1-[1-(2-{6-[5-(2H-pyrazol-3-yl)-pyridin-2-yloxy]-benzofuran-3-yl}-ethyl)-piperidin-4-yl]-pyrrolidin-2-one]
0.66	190	O=C1CCCN1C1CCN(C[C@H]2Cc3ccc(Oc4ccc(-c5ccn[nH]5)cn4)cc3O2)CC1 [Example 63, 1-(1-{(R)-6-[5-(2H-Pyrazol-3-yl)-pyridin-2-yloxy]-2,3-dihydro-benzofuran-2-ylmethyl}-piperidin-4-yl)-pyrrolidin-2-one]
0.47	160	O=C1CCCN1C1CCN(CCc2coc3cc(Oc4ccc(-c5ccn[nH]5)cn4)ccc23)CC1 [Example 72, 1-[1-(2-{6-[5-(2H-Pyrazol-3-yl)-pyridin-2-yloxy]-benzofuran-3-yl}-ethyl)-piperidin-4-yl]-pyrrolidin-2-one]
